Our source for the melting point and IC50 values is patent US20100004459A1, “2-PHENYLNICOTINIC ACID DERIVATIVE” (NIPPON ZOKI PHARMACEUTICAL CO., LTD., priority 2006, published 2010).

In series [1] the target is T1, xanthine oxidase (Bos taurus, UniProt P80457).
T1 construct: derived from milk; manufactured by Sigma; purchased Sigma; host or cells: milk (natural source)
Kind of series: Test for xanthine oxidase inhibitory activity. Type of series: biochemical. As to conditions: xanthine oxidase derived from milk (Sigma); substrate xanthine; uric acid production at OD 292 nm, 37° C. How it is done:
Evaluation of inhibitory activity of the present invention to xanthine oxidase was conducted using xanthine as a substrate by measuring the amount of uric acid produced by xanthine oxidase which is an oxidizing enzyme therefor. Thus, xanthine oxidase (0.01 unit/L, 20 μL/well; derived from milk; manufactured by Sigma), diethylenetriamine pentaacetate (0.01 mol/L, 20 μL/well), phosphate buffer (20 μL/well), distilled water (100 μL/well) and a diluted solution (20 μL/well) of a test substance were mixed in a 96-well quartz microplate. After preincubating for 5 minutes in a microplate spectrophotometer warmed at 37° C., xanthine (1 mmol/L, 20 μL/well) was added. The changes with elapse of time in OD 292 nm based on the production of uric acid was measured using a microplate spectrophotometer warmed at 37° C. whereby the initial reaction velocity was measured. Xanthine oxidase inhibitory activity was calculated by the following formula and concentration of the test substance for 50% suppression (IC50 value) was calculated.
Inhibition Rate(%)={[(Initial Reaction Velocity of the Reaction Control)-(Initial Reaction Velocity upon Addition of Test Substance)]/[Initial Reaction Velocity of the Reaction Control]}×100

Molecules are shown by their SMILES.

T1 sequence (P80457 whole entry): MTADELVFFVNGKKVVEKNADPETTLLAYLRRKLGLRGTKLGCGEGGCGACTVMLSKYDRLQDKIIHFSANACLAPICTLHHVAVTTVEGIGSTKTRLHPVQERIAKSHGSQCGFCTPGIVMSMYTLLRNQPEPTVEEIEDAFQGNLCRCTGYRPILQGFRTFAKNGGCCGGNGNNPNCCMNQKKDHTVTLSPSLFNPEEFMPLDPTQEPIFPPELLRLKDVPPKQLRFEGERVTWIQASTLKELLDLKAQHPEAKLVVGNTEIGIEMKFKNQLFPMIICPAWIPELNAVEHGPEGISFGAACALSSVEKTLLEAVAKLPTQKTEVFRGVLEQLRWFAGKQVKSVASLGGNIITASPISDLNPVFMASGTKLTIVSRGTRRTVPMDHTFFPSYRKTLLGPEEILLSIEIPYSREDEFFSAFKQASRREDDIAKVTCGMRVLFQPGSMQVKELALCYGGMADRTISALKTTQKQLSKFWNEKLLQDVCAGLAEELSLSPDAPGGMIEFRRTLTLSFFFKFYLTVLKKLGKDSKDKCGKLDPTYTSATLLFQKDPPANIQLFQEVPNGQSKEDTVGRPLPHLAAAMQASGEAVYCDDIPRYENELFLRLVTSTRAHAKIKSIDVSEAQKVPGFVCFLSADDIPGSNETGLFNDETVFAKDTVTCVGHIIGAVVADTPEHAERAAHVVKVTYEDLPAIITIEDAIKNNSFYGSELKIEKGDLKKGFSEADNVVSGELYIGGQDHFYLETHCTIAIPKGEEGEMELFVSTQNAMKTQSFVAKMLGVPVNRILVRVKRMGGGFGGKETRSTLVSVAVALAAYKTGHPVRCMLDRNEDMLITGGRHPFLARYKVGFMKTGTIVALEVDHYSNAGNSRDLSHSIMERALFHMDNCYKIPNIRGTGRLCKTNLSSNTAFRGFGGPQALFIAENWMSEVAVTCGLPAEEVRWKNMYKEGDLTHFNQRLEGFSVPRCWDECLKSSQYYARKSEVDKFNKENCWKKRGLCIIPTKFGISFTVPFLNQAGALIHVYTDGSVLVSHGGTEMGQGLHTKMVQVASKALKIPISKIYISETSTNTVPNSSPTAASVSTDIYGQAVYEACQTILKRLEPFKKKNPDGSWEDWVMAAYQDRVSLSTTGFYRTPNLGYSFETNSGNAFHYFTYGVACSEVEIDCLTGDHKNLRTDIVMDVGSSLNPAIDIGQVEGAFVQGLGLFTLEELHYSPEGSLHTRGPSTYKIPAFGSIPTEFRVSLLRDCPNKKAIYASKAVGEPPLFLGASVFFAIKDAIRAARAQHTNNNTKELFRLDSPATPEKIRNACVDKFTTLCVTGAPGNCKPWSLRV

As for `CCCCC(C)(C)COc1ccc(-c2ncccc2C(=O)O)cc1C#N` [Example 73, 2-[3-Cyano-4-(2,2-dimethylhexyloxy)phenyl]nicotinic acid], the melting point (as a rule, the temperature, or range, at which the solid turns liquid) was 155 to 156 °C. Moreover, inhibition in series [1] was half-maximal at 21 nM (IC50).

Take `N#Cc1cc(-c2ncccc2C(=O)O)ccc1N1CCCCCC1` [Example 138, 2-(4-Azepan-1-yl-3-cyanophenyl)nicotinic acid]: half-maximal inhibition in series [1] (IC50) was put at 34 nM.

With `CC(C)COc1ccc(-c2ncccc2C(=O)O)cc1C#N` [Example 44, 2-(3-Cyano-4-isobutoxyphenyl)nicotinic acid], the melting point was 178 to 179 °C. Besides, in series [1], half-maximal inhibition (IC50) was put at 91 nM.

`CC(C)(CCc1ccccc1)COc1ccc(-c2ncccc2C(=O)O)cc1C#N` [Example 81, 2-[3-Cyano-4-(2,2-dimethyl-4-phenylbutoxy)phenyl]nicotinic acid] gave a melting point of 172 to 173 °C. The IC50 (in general, the concentration at which inhibition is half-maximal) in series [1] was 16 nM.

Turning to `N#Cc1cc(-c2ncccc2C(=O)O)ccc1OCC1CC1` [Example 45, 2-(3-Cyano-4-cyclopropylmethoxyphenyl)nicotinic acid], the melting point lay in the range of 203 to 204 °C.

In turn, `CS(=O)(=O)Oc1ccc(CCOc2ccc(-c3ncccc3C(=O)O)cc2C#N)cc1` [Example 86, 2-{3-Cyano-4-[2-(4-methanesulfonyloxyphenyl)ethoxy]phenyl}nicotinic acid] returned an IC50 in series [1] of 99 nM.

In turn, `Cc1ccc(C)c(CCOc2ccc(-c3ncccc3C(=O)O)cc2C#N)c1` [Example 130, 2-[3-Cyano-4-(2,5-dimethylphenethyloxy)phenyl]nicotinic acid] gave an IC50 in series [1] of 72 nM.

`CCCCCCOc1ccc(-c2ncccc2C(=O)O)cc1C#N` [Example 49, 2-(3-Cyano-4-hexyloxyphenyl)nicotinic acid] yielded a melting point of 187 to 188 °C. Also, the IC50 in series [1] was 63 nM.

The compound `N#Cc1cc(-c2ncccc2C(=O)O)ccc1OCc1ccc(C(F)(F)F)cc1` [Example 50, 2-[3-Cyano-4-(4-trifluoromethylbenzyloxy)phenyl]nicotinic acid] gave a melting point of 226 to 227 °C. The compound also yielded an IC50 in series [1] of 83 nM.

`N#Cc1cc(-c2ncccc2C(=O)O)ccc1OCCCOc1ccc(Oc2ccccc2)cc1` [Example 71, 2-{3-Cyano-4-[3-(4-phenoxyphenoxy)propoxy]phenyl}nicotinic acid] had a melting point of 149 to 150 °C. Besides, the IC50 in series [1] turned out to be 90 nM.

`N#Cc1cc(-c2ncccc2C(=O)O)ccc1OCC1CCC1` [Example 46, 2-(3-Cyano-4-cyclobutylmethoxyphenyl)nicotinic acid] showed a melting point of 204 to 205 °C. The compound further registered an IC50 in series [1] of 83 nM.

For `N#Cc1cc(-c2ncccc2C(=O)O)ccc1OCCCCc1ccccc1F` [Example 64, 2-{3-Cyano-4-[4-(2-fluorophenyl)butoxy]phenyl}nicotinic acid], the melting point is 151 to 152 °C. In series [1], this compound returned an IC50 of 33 nM.

For `CC(C)(C)c1cc(CCCOc2ccc(-c3ncccc3C(=O)O)cc2C#N)cc(C(C)(C)C)c1O` [Example 88], in series [1], inhibition was half-maximal at 47 nM (IC50).

Regarding `CC(C)(COc1ccc(-c2ncccc2C(=O)O)cc1C#N)Cc1ccc(C(F)(F)F)cc1` [Example 106, 2-{3-Cyano-4-[2,2-dimethyl-3-(4-trifluoromethylphenyl)propoxy]phenyl}nicotinic acid], in series [1], the concentration for half-maximal inhibition (IC50) was determined as 25 nM.

`CC(C)(C)COc1ccc(-c2ncc(F)cc2C(=O)O)cc1C#N` [Example 140, 2-[3-Cyano-4-(2,2-dimethylpropoxy)phenyl]-5-fluoronicotinic acid] gave a half-inhibitory concentration (IC50) in series [1] of 40 nM.

On to `COc1ccc(CCOc2ccc(-c3ncccc3C(=O)O)cc2C#N)cc1` [Example 53, 2-[3-Cyano-4-(4-methoxyphenethyloxy)phenyl]nicotinic acid], for which the melting point was 183 to 184 °C. In addition, the IC50 in series [1] worked out at 58 nM.

`N#Cc1cc(-c2ncccc2C(=O)O)ccc1OCCCc1ccc(F)cc1` [Example 61, 2-{3-Cyano-4-[3-(4-fluorophenyl)propoxy]phenyl}nicotinic acid] registered a melting point of 177 to 178 °C. Half-maximal inhibition in series [1] (IC50) required 56 nM.

`COc1ccc(CCCOc2ccc(-c3ncccc3C(=O)O)cc2C#N)cc1` [Example 120, 2-{3-Cyano-4-[3-(4-methoxyphenyl)propoxy]phenyl}nicotinic acid] yielded an IC50 in series [1] of 35 nM.

As to `COc1ccc(-c2ncccc2C(=O)O)cc1C#N` [Example 43, 2-(3-Cyano-4-methoxyphenyl)nicotinic acid], the melting point lay within 254 to 255 °C.

Regarding `N#Cc1cc(-c2ncccc2C(=O)O)ccc1OCCCCc1ccccc1C(F)(F)F` [Example 126, 2-{3-Cyano-4-[4-(2-trifluoromethylphenyl)butoxy]phenyl}nicotinic acid], in series [1], the IC50 stood at 26 nM.

`COc1ccccc1CC(C)(C)COc1ccc(-c2ncccc2C(=O)O)cc1C#N` [Example 112, 2-{3-Cyano-4-[2,2-dimethyl-3-(2-methoxyphenyl)propoxy]phenyl}nicotinic acid]: the IC50 in series [1] was 28 nM.

In the case of `N#Cc1cc(-c2ncccc2C(=O)O)ccc1OCCCc1ccccc1F` [Example 60, 2-{3-Cyano-4-[3-(2-fluorophenyl)propoxy]phenyl}nicotinic acid], the melting point lay within 173 to 174 °C. In series [1], this compound registered an IC50 of 49 nM.

For `N#Cc1cc(-c2ncccc2C(=O)O)ccc1OCCCCc1ccc(C(F)(F)F)cc1` [Example 63, 2-{3-Cyano-4-[4-(4-trifluoromethylphenyl)butoxy]phenyl}nicotinic acid], the melting point fell in the range of 165 to 166 °C. The compound further registered an IC50 in series [1] of 97 nM.

`CC(C)(C)c1cc(CCCCOc2ccc(-c3ncccc3C(=O)O)cc2C#N)cc(C(C)(C)C)c1O` [Example 90, 2-{3-Cyano-4-[4-(3,5-di-tert-butyl-4-hydroxyphenyl)butoxy]phenyl}nicotinic acid] gave an IC50 in series [1] of 37 nM.

Take `N#Cc1cc(-c2ncccc2C(=O)O)ccc1OCCCc1ccccc1C(F)(F)F` [Example 118, 2-{3-Cyano-4-[3-(2-trifluoromethylphenyl)propoxy]phenyl}nicotinic acid]: the IC50 in series [1] came out at 12 nM.

Turning to `CC(C)(COc1ccc(-c2ncccc2C(=O)O)cc1C#N)Cc1ccccc1` [Example 80, 2-[3-Cyano-4-(2,2-dimethyl-3-phenylpropoxy)phenyl]nicotinic acid], the melting point fell in the range of 196 to 197 °C. This compound showed an IC50 in series [1] of 38 nM.

As to `COc1ccc(CC(C)(C)COc2ccc(-c3ncccc3C(=O)O)cc2C#N)cc1` [Example 104, 2-{3-Cyano-4-[2,2-dimethyl-3-(4-methoxyphenyl)propoxy]phenyl}nicotinic acid], in series [1], the IC50 came to 13 nM.

For the compound `CCC1(COc2ccc(-c3ncccc3C(=O)O)cc2C#N)CCCC1` [Example 76, 2-[3-Cyano-4-(1-ethylcyclopentylmethoxy)phenyl]nicotinic acid], the melting point fell in the range of 196 to 197 °C. The compound further returned an IC50 in series [1] of 17 nM.

On to `N#Cc1cc(-c2ncccc2C(=O)O)ccc1OCCCc1ccccc1` [Example 116, 2-[3-Cyano-4-(3-phenylpropoxy)phenyl]nicotinic acid], for which it took 52 nM to reach half-maximal inhibition in series [1] (IC50).

Turning to `N#Cc1cc(-c2ncccc2C(=O)O)ccc1OCCCOc1ccc(OC(F)(F)F)cc1Cl` [Example 69, 2-{4-[3-(2-Chloro-4-trifluoromethoxyphenoxy)propoxy]-3-cyanophenyl}nicotinic acid], the melting point lay in the range of 159 to 160 °C. In series [1], this compound showed an IC50 of 58 nM.

In turn, `CC(C)(COc1ccc(-c2ncccc2C(=O)O)cc1C#N)Cc1ccccc1C(F)(F)F` [Example 132, 2-{3-Cyano-4-[2,2-dimethyl-3-(2-trifluoromethylphenyl)propoxy]phenyl}nicotinic acid] returned an IC50 in series [1] of 15 nM.

For the compound `N#Cc1cc(-c2ncccc2C(=O)O)ccc1OCCC1CCCCC1` [Example 48, 2-[3-Cyano-4-(2-cyclohexylethoxy)phenyl]nicotinic acid], the melting point was 171 to 172 °C. In series [1], this compound came in with a half-maximal inhibitory concentration (IC50) of 38 nM.

In series [1], `COc1ccc(CCCCOc2ccc(-c3ncccc3C(=O)O)cc2C#N)cc1` [Example 134, 2-{3-Cyano-4-[4-(4-methoxyphenyl)butoxy]phenyl}nicotinic acid] came in with an IC50 of 18 nM.

For `COc1ccc(C(C)(C)COc2ccc(-c3ncccc3C(=O)O)cc2C#N)cc1` [Example 122, 2-{3-Cyano-4-[2-methyl-2-(4-methoxyphenyl)propoxy]phenyl}nicotinic acid], the IC50 in series [1] was determined as 91 nM.
